The values below come from US12590062B2, “PD-1/PD-L1 inhibitors” (Gilead Sciences, Inc., priority 2017, dated 2026).

The target in the assay is T1, PD-1/PD-L1 interaction (Homo sapiens, UniProt Q9NZQ7).
T1 construct: expressed in transfected cells; host or cells: CHO cells (aAPC-PD-L1) co-cultured with Jurkat cells overexpressing PD-1 and an NFAT-luciferase reporter
T1 sequence (Q9NZQ7 19-290): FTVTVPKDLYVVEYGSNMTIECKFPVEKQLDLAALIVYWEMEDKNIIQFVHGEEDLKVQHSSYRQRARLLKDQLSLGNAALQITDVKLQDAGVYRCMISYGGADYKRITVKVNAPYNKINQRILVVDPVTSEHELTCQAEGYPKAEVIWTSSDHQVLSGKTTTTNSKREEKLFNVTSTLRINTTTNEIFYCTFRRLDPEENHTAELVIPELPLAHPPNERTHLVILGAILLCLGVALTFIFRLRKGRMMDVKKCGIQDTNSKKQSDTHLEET
Description: PD-1/PD-L1 NFAT reporter co-culture assay. Conditions: Jurkat PD-1 NFAT-luciferase cells co-cultured with aAPC-PD-L1 CHO cells, 6 hrs at 37° C.; read-out: EC50 NFAT Luciferase. The class given is cell-based. An outline of the steps:
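Restoration of TCR-driven NFAT luciferase signal: 6 h, 37 °C co-culture of PD-1 Jurkat reporter cells (pre-mixed with compound) on overnight-seeded PD-L1/anti-CD3 CHO monolayer. ONE-Glo luminescence; dose-response fitted to four-parameter equation for EC50.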
Consider `COc1nc(OCc2cccc(-c3cccc(COc4nc(OC)c(CN[C@H]5CCC[C@H]5O)cc4Cl)c3C)c2C)c(Cl)cc1CN[C@H]1CCC[C@H]1O` [Example 226, (1R,1′R,2S,2′S)-2,2′-((((((2,2′-dimethyl-[1,1′-biphenyl]-3,3′-diyl)bis(methylene))bis(oxy))bis(5-chloro-2-methoxypyridine-6,3-diyl))bis(methylene))bis(azanediyl))bis(cyclopentan-1-ol)], for which the concentration for a half-maximal effect (EC50) amounted to 775 nM.
Regarding `COc1nc(OCc2cccc(-c3cccc(COc4nc(OC)c(CN[C@@H]5CCC[C@@H]5O)cc4Cl)c3C)c2C)c(Cl)cc1CN[C@@H]1CCC[C@@H]1O` [Example 227, (1S,1′S,2R,2′R)-2,2′-((((((2,2′-dimethyl-[1,1′-biphenyl]-3,3′-diyl)bis(methylene))bis(oxy))bis(5-chloro-2-methoxypyridine-6,3-diyl))bis(methylene))bis(azanediyl))bis(cyclopentan-1-ol)], the half-maximal effective concentration (EC50) was 615 nM.
Regarding `COc1nc(OCc2cccc(-c3cccc(COc4nc(OC)c(CN[C@H]5CCCC[C@H]5O)cc4Cl)c3C)c2C)c(Cl)cc1CN[C@H]1CCCC[C@H]1O` [Example 228, (1R,1′R,2S,2′S)-2,2′-((((((2,2′-dimethyl-[1,1′-biphenyl]-3,3′-diyl)bis(methylene))bis(oxy))bis(5-chloro-2-methoxypyridine-6,3-diyl))his(methylene))his(azanediyl))his(cyclohexan-1-ol)], the EC50 is 844 nM.
As to `COc1nc(OCc2cccc(-c3cccc(COc4nc(OC)c(CN[C@H]5CCCC[C@@H]5O)cc4Cl)c3C)c2C)c(Cl)cc1CN[C@H]1CCCC[C@@H]1O` [Example 229, (1S,1′S,2S,2′S)-2,2′-((((((2,2′-dimethyl-[1,1′-biphenyl]-3,3′-diyl)bis(methylene))bis(oxy))bis(5-chloro-2-methoxypyridine-6,3-diyl))bis(methylene))bis(azanediyl))bis(cyclohexan-1-ol)], the EC50 was 1220 nM.
In the case of `COc1nc(OCc2cccc(-c3cccc(COc4nc(OC)c(CN[C@H]5CCC[C@@H]5O)cc4Cl)c3C)c2C)c(Cl)cc1CN[C@H]1CCC[C@@H]1O` [Example 230, (1S,1′S,2S,2′S)-2,2′-((((((2,2′-dimethyl-[1,1′-biphenyl]-3,3′-diyl)bis(methylene))bis(oxy))bis(5-chloro-2-methoxypyridine-6,3-diyl))bis(methylene))bis(azanediyl))bis(cyclopentan-1-ol)] it was 821 nM; in that of `COc1nc(OCc2cccc(-c3cccc(COc4nc(OC)c(CN5CCOC[C@H]5C(=O)O)cc4Cl)c3C)c2C)c(Cl)cc1CN1CCOC[C@H]1C(=O)O` [Example 233, (3S,3′S)-4,4′-(((((2,2′-dimethyl-[1,1′-biphenyl]-3,3′-diyl)bis(methylene))bis(oxy))bis(5-chloro-2-methoxypyridine-6,3-diyl))bis(methylene))bis(morpholine-3-carboxylicacid)], 11600 nM.
`COc1nc(OCc2cccc(-c3cccc(COc4nc(OC)c(CN5CCOC(C(=O)O)C5)cc4Cl)c3C)c2C)c(Cl)cc1CN1CCOC(C(=O)O)C1` (stereo not shown) [Example 235]: the concentration giving a half-maximal response (EC50) is no less than 50000 nM.
Consider `COc1nc(OCc2cccc(-c3cccc(COc4nc(OC)c(C(=O)NC[C@@H](O)CC(=O)O)cc4Cl)c3C)c2C)c(Cl)cc1C(=O)NC[C@@H](O)CC(=O)O` [Example 237, (3S,3′S)-4,4′-((6,6′-(((2,2′-dimethyl-[1,1′-biphenyl]-3,3′-diyl)bis(methylene))bis(oxy))bis(5-chloro-2-methoxynicotinoyl))bis(azanediyl))bis(3-hydroxybutanoic acid)], for which the EC50 was no less than 50000 nM.
As to `COc1nc(OCc2cccc(-c3cccc(COc4nc(OC)c(CN5CC[C@H](O)C5)cc4Br)c3C)c2C)c(Br)cc1CN1CC[C@H](O)C1` [Example 244, (3S,3′S)-1,1′-(((((2,2′-dimethyl-[1,1′-biphenyl]-3,3′-diyl)bis(methylene))bis(oxy))bis(5-bromo-2-methoxypyridine-6,3-diyl))bis(methylene))bis(pyrrolidin-3-ol)], the EC50 was found to be 390 nM.
As for `COc1nc(OCc2cccc(-c3cccc(COc4nc(OC)c(CN5CC[C@@H](O)C5)cc4Br)c3C)c2C)c(Br)cc1CN1CC[C@@H](O)C1` [Example 247, (3R,3′R)-1,1′-(((((2,2′-dimethyl-[1,1′-biphenyl]-3,3′-diyl)bis(methylene))bis(oxy))bis(5-bromo-2-methoxypyridine-6,3-diyl))bis(methylene))bis(pyrrolidin-3-ol)], the figure is 776 nM; as for `COc1nc(OCc2cccc(-c3cccc(COc4nc(OC)c(C5COCCN5)cc4Br)c3C)c2C)c(Br)cc1C1COCCN1` (stereo not shown) [Example 249, 3,3′-((((2,2′-dimethyl-[1,1′-biphenyl]-3,3′-diyl)bis(methylene))bis(oxy))bis(5-bromo-2-methoxypyridine-6,3-diyl))dimorpholine], no less than 50000 nM; as for `COc1nc(OCc2cccc(-c3cccc(COc4nc(OC)c(CN5CC(O)C5)cc4Br)c3C)c2C)c(Br)cc1CN1CC(O)C1` [Example 255, 1,1′-(((((2,2′-dimethyl-[1,1′-biphenyl]-3,3′-diyl)bis(methylene))bis(oxy))bis(5-bromo-2-methoxypyridine-6,3-diyl))bis(methylene))bis(azetidin-3-ol)], no less than 50000 nM.
On to `CNC(=O)C1CN(Cc2cc(Br)c(OCc3cccc(-c4cccc(COc5nc(OC)c(CN6CC(C(=O)NC)C6)cc5Br)c4C)c3C)nc2OC)C1` [Example 256, 1,1′-(((((2,2′-dimethyl-[1,1′-biphenyl]-3,3′-diyl)bis(methylene))bis(oxy))bis(5-bromo-2-methoxypyridine-6,3-diyl))bis(methylene))bis(N-methylazetidine-3-carboxamide)], for which the EC50 stood at 758 nM.
In the case of `Cc1c(COc2cc(OCc3cncc(C#N)c3)c(CN3CC[C@H]3CO)cc2Br)cccc1-c1cccc(COc2cc(OCc3cncc(C#N)c3)c(CN3CC[C@H]3CO)cc2Br)c1C` [Example 260, 5,5′-((((((2,2′-dimethyl-[1,1′-biphenyl]-3,3′-diyl)bis(methylene))bis(oxy))bis(4-bromo-6-(((S)-2-(hydroxymethyl)azetidin-1-yl)methyl)-3,1-phenylene))bis(oxy))bis(methylene))dinicotinonitrile] it was 463 nM; in that of `COc1nc(OCc2cccc(-c3cccc(COc4nc(OC)c(CNCCN5CCCS5(=O)=O)cc4Br)c3C)c2C)c(Br)cc1CNCCN1CCCS1(=O)=O` [Example 264, 2,2′-(((((((2,2′-dimethyl-[1,1′-biphenyl]-3,3′-diyl)bis(methylene))bis(oxy))bis(5-bromo-2-methoxypyridine-6,3-diyl))bis(methylene))bis(azanediyl))bis(ethane-2,1-diyl))bis(isothiazolidine 1,1-dioxide)], 1290 nM; in that of `COc1nc(OCc2cccc(-c3cccc(COc4nc(OC)c(CNCCNS(C)(=O)=O)cc4Br)c3C)c2C)c(Br)cc1CNCCNS(C)(=O)=O` [Example 266, N,N′-(((((((2,2′-dimethyl-[1,1′-biphenyl]-3,3′-diyl)bis(methylene))bis(oxy))bis(5-bromo-2-methoxypyridine-6,3-diyl))bis(methylene))bis(azanediyl))bis(ethane-2,1-diyl))dimethanesulfonamide], 1380 nM.
